From patent US11713338B2, “Cyclic peptides multimers targeting α-4-β-7 integrin” (priority 2016, dated 2023)

Each molecule was assayed against T1, integrin α4β7 (RPMI8866 human cells adhering to MAdCAM-1) (Homo sapiens, UniProt P13612+P26010) (assay: Integrin α4β7-MAdCAM cell adhesion assay (RPMI8866 cells)). Details: RPMI8866 cells adhering to MAdCAM; read-out: RPMI8866 Adhesion α4β7/MAdCAM IC50.
T1 construct: RMP18866 cells, which express integrin α4β7; host or cells: RPMI8866
T1 sequence (P13612 34-1032): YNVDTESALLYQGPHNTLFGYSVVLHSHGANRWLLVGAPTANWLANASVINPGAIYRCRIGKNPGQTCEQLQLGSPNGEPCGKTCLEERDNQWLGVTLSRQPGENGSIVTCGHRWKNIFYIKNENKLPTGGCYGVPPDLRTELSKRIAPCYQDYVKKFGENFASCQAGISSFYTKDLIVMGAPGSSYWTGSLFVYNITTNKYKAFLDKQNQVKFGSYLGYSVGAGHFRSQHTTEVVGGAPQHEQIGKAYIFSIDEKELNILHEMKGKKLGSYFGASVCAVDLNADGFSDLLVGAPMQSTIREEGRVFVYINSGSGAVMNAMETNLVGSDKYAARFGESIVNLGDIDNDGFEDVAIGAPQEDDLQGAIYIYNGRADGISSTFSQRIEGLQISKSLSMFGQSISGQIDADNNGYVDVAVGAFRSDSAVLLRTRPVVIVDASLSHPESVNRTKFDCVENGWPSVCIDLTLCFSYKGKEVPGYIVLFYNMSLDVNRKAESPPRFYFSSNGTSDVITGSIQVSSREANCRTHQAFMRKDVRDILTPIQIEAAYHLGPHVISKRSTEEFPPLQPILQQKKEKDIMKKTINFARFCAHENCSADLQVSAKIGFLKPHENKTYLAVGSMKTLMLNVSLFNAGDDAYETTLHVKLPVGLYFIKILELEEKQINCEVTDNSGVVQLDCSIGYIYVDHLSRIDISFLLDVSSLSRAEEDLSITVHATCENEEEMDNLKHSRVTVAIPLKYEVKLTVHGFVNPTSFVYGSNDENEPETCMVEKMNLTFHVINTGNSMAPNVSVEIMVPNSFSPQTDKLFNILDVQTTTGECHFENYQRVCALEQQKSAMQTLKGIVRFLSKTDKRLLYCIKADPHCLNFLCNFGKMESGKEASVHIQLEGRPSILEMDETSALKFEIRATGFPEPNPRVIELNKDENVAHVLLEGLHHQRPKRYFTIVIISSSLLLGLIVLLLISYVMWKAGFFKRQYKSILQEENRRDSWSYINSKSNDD
T1 sequence (P26010 20-798): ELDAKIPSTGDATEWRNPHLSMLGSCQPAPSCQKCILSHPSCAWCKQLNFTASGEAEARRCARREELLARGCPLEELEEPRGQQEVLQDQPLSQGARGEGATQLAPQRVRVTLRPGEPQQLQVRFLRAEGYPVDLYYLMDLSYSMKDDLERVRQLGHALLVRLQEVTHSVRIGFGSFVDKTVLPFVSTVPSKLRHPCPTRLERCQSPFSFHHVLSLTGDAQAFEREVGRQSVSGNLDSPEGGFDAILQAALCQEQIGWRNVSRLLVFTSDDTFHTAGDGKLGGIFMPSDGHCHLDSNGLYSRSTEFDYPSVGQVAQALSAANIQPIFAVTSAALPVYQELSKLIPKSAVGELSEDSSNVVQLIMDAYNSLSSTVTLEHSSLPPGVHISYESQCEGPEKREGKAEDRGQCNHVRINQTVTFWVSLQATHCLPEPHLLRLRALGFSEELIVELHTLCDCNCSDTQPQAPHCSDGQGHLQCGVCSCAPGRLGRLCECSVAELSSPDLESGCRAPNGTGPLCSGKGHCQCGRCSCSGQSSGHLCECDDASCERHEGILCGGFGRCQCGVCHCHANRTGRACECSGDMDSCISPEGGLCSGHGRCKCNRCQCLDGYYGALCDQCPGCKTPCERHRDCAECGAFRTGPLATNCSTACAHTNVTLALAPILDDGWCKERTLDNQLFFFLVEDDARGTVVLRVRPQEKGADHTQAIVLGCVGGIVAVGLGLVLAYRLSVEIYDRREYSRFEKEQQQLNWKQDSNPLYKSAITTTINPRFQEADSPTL
Type: cell-based
Method: Integrin α4β7-MAdCAM Cell Adhesion Assay
RPMI8866 cells were resuspended at 10 million cells/ml in PBS containing […] and incubated at 37° C. for 30 min in a 50 ml tube. […] The plate was emptied by inverting and blotting on paper towels and washed manually twice with PBS. 100 μl PBS was then added to each well. […] To calculate the dose response, the fluorescence value of control wells not containing cells was subtracted from each test well.

| SMILES | IC50 [nM] |
| --- | --- |
| CC(C)C[C@@H]1NC(=O)c2ccc(-c3ccc(N4CCN(C(=O)CN(C)CC(=O)N5CCN(c6ccc(-c7ccc8cc7CNC(=O)[C@@H]7CCCN7[C@H](C(=O)NC(C)(C)C)[C@H](C)NC(=O)[C@H]([C@@H](C)O)NC(=O)[C@H](CC(=O)O)NC(=O)[C@H](CC(C)C)NC8=O)cc6)CC5)CC4)cc3)c(c2)CNC(=O)[C@@H]2CCCN2[C@H](C(=O)NC(C)(C)C)[C@H](C)NC(=O)[C@H]([C@@H](C)O)NC(=O)[C@H](CC(=O)O)NC1=O [Compound 501] | 38 |
| CC(C)C[C@@H]1NC(=O)[C@H]2Cc3ccccc3CN2C(=O)[C@H](Cc2cccc(CNC(=O)CCCCCCC(=O)NCc3cccc(C[C@@H]4NC(=O)[C@@H]5CCCN5[C@H](C(=O)NC(C)(C)C)[C@H](C)NC(=O)[C@H]([C@@H](C)O)NC(=O)[C@H](CC(=O)O)NC(=O)[C@H](CC(C)C)NC(=O)[C@H]5Cc6ccccc6CN5C4=O)c3)c2)NC(=O)[C@@H]2CCCN2[C@H](C(=O)NC(C)(C)C)[C@H](C)NC(=O)[C@H]([C@@H](C)O)NC(=O)[C@H](CC(=O)O)NC1=O [Compound 528] | 47 |
| CC(C)C[C@@H]1NC(=O)c2ccc(-c3ccc(N4CCN(C(=O)COCCOCCOCC(=O)N5CCN(c6ccc(-c7ccc8cc7CNC(=O)[C@@H]7CCCN7[C@H](C(=O)NC(C)(C)C)[C@H](C)NC(=O)[C@H]([C@@H](C)O)NC(=O)[C@H](CC(=O)O)NC(=O)[C@H](CC(C)C)NC8=O)cc6)CC5)CC4)cc3)c(c2)CNC(=O)[C@@H]2CCCN2[C@H](C(=O)NC(C)(C)C)[C@H](C)NC(=O)[C@H]([C@@H](C)O)NC(=O)[C@H](CC(=O)O)NC1=O [Compound 508] | 46 |
| CC(C)C[C@@H]1NC(=O)c2ccc(-c3ccc(N4CCN(C(=O)c5cccc(-c6ccccc6C(=O)N6CCN(c7ccc(-c8ccc9cc8CNC(=O)[C@@H]8CCCN8[C@H](C(=O)NC(C)(C)C)[C@H](C)NC(=O)[C@H]([C@@H](C)O)NC(=O)[C@H](CC(=O)O)NC(=O)[C@H](CC(C)C)NC9=O)cc7)CC6)c5)CC4)cc3)c(c2)CNC(=O)[C@@H]2CCCN2[C@H](C(=O)NC(C)(C)C)[C@H](C)NC(=O)[C@H]([C@@H](C)O)NC(=O)[C@H](CC(=O)O)NC1=O [Compound 478] | 34 |
| CC(C)C[C@@H]1NC(=O)c2ccc(-c3ccc(N4CCN(C(=O)Cc5ccc(CC(=O)N6CCN(c7ccc(-c8ccc9cc8CNC(=O)[C@@H]8CCCN8[C@H](C(=O)NC(C)(C)C)[C@H](C)NC(=O)[C@H]([C@@H](C)O)NC(=O)[C@H](CC(=O)O)NC(=O)[C@H](CC(C)C)NC9=O)cc7)CC6)cc5)CC4)cc3)c(c2)CNC(=O)[C@@H]2CCCN2[C@H](C(=O)NC(C)(C)C)[C@H](C)NC(=O)[C@H]([C@@H](C)O)NC(=O)[C@H](CC(=O)O)NC1=O [Compound 516] | 98 |
| CC(C)C[C@@H]1NC(=O)c2ccc(-c3ccc(N4CCN(C(=O)[C@H]5CCCC[C@H]5C(=O)N5CCN(c6ccc(-c7ccc8cc7CNC(=O)[C@@H]7CCCN7[C@H](C(=O)NC(C)(C)C)[C@H](C)NC(=O)[C@H]([C@@H](C)O)NC(=O)[C@H](CC(=O)O)NC(=O)[C@H](CC(C)C)NC8=O)cc6)CC5)CC4)cc3)c(c2)CNC(=O)[C@@H]2CCCN2[C@H](C(=O)NC(C)(C)C)[C@H](C)NC(=O)[C@H]([C@@H](C)O)NC(=O)[C@H](CC(=O)O)NC1=O [Compound 491] | 23 |
| CC(C)C[C@@H]1NC(=O)c2ccc(-c3ccc(N4CCN(C(=O)CCOCCOCCOCCOCCOCCOCCOCCOCCOCCOCCOCCOCCOCCC(=O)N5CCN(c6ccc(-c7ccc8cc7CNC(=O)[C@@H]7CCCN7[C@H](C(=O)NC(C)(C)C)[C@H](C)NC(=O)[C@H]([C@@H](C)O)NC(=O)[C@H](CC(=O)O)NC(=O)[C@H](CC(C)C)NC8=O)cc6)CC5)CC4)cc3)c(c2)CNC(=O)[C@@H]2CCCN2[C@H](C(=O)NC(C)(C)C)[C@H](C)NC(=O)[C@H]([C@@H](C)O)NC(=O)[C@H](CC(=O)O)NC1=O [Compound 504] | 42 |

The remaining lines, values ahead:

| IC50 [nM] | SMILES |
| --- | --- |
| 34 | CC(C)C[C@@H]1NC(=O)c2ccc(-c3ccc(N4CCN(C(=O)CCCCCCCC(=O)N5CCN(c6ccc(-c7ccc8cc7CNC(=O)[C@@H]7CCCN7[C@H](C(=O)NC(C)(C)C)[C@H](C)NC(=O)[C@H]([C@@H](C)O)NC(=O)[C@H](CC(=O)O)NC(=O)[C@H](CC(C)C)NC8=O)cc6)CC5)CC4)cc3)c(c2)CNC(=O)[C@@H]2CCCN2[C@H](C(=O)NC(C)(C)C)[C@H](C)NC(=O)[C@H]([C@@H](C)O)NC(=O)[C@H](CC(=O)O)NC1=O [Compound 488] |
| 30 | CC(C)C[C@@H]1NC(=O)c2ccc(-c3ccc(N4CCN(C(=O)CCCC(=O)N5CCN(c6ccc(-c7ccc8cc7CNC(=O)[C@@H]7CCCN7[C@H](C(=O)NC(C)(C)C)[C@H](C)NC(=O)[C@H]([C@@H](C)O)NC(=O)[C@H](CC(=O)O)NC(=O)[C@H](CC(C)C)NC8=O)cc6)CC5)CC4)cc3)c(c2)CNC(=O)[C@@H]2CCCN2[C@H](C(=O)NC(C)(C)C)[C@H](C)NC(=O)[C@H]([C@@H](C)O)NC(=O)[C@H](CC(=O)O)NC1=O [Compound 485] |
| 29 | CC(C)C[C@@H]1NC(=O)c2ccc(-c3ccc(N4CCN(C(=O)CC(=O)N5CCN(c6ccc(-c7ccc8cc7CNC(=O)[C@@H]7CCCN7[C@H](C(=O)NC(C)(C)C)[C@H](C)NC(=O)[C@H]([C@@H](C)O)NC(=O)[C@H](CC(=O)O)NC(=O)[C@H](CC(C)C)NC8=O)cc6)CC5)CC4)cc3)c(c2)CNC(=O)[C@@H]2CCCN2[C@H](C(=O)NC(C)(C)C)[C@H](C)NC(=O)[C@H]([C@@H](C)O)NC(=O)[C@H](CC(=O)O)NC1=O [Compound 483] |
| 23 | CC(C)C[C@@H]1NC(=O)C[C@H](CCCCN)N(C)C(=O)[C@H](CCCCNC(=O)CCC(=O)NCCCC[C@@H]2NC(=O)[C@@H]3CCCN3[C@H](C(=O)NC(C)(C)C)[C@H](C)NC(=O)[C@H]([C@@H](C)O)NC(=O)[C@H](CC(=O)O)NC(=O)[C@H](CC(C)C)NC(=O)C[C@H](CCCCN)N(C)C2=O)NC(=O)[C@@H]2CCCN2[C@H](C(=O)NC(C)(C)C)[C@H](C)NC(=O)[C@H]([C@@H](C)O)NC(=O)[C@H](CC(=O)O)NC1=O [Compound 531] |
| 25 | CC(C)C[C@@H]1NC(=O)c2ccc(-c3ccc(N4CCN(C(=O)c5cccc(C(=O)N6CCN(c7ccc(-c8ccc9cc8CNC(=O)[C@@H]8CCCN8[C@H](C(=O)NC(C)(C)C)[C@H](C)NC(=O)[C@H]([C@@H](C)O)NC(=O)[C@H](CC(=O)O)NC(=O)[C@H](CC(C)C)NC9=O)cc7)CC6)c5)CC4)cc3)c(c2)CNC(=O)[C@@H]2CCCN2[C@H](C(=O)NC(C)(C)C)[C@H](C)NC(=O)[C@H]([C@@H](C)O)NC(=O)[C@H](CC(=O)O)NC1=O [Compound 497] |
| 31 | CC(C)C[C@@H]1NC(=O)c2ccc(-c3ccc(N4CCN(C(=O)CCOCCOCCOCCOCCOCCC(=O)N5CCN(c6ccc(-c7ccc8cc7CNC(=O)[C@@H]7CCCN7[C@H](C(=O)NC(C)(C)C)[C@H](C)NC(=O)[C@H]([C@@H](C)O)NC(=O)[C@H](CC(=O)O)NC(=O)[C@H](CC(C)C)NC8=O)cc6)CC5)CC4)cc3)c(c2)CNC(=O)[C@@H]2CCCN2[C@H](C(=O)NC(C)(C)C)[C@H](C)NC(=O)[C@H]([C@@H](C)O)NC(=O)[C@H](CC(=O)O)NC1=O [Compound 509] |
